Publication PMC3547949, “The Immunosuppressive Agent Mizoribine Monophosphate Is an Inhibitor of the Human RNA Capping Enzyme” (PLoS ONE, 2013)
Read-outs that look alike come from different tables or passages of the source.

Key:
[1] = biological target: T1, human RNA capping enzyme (HCE) (Homo sapiens, UniProt O60942); experiment: Complete RNA capping reaction (RTase+GTase) of a 5′-triphosphate RNA; type: biochemical
T1 construct: full-length bifunctional HCE protein (amino acid 1–597); 6-His (N); made in house; host or cells: Escherichia coli BL21(DE3), pET28a
T1 sequence (O60942 whole entry): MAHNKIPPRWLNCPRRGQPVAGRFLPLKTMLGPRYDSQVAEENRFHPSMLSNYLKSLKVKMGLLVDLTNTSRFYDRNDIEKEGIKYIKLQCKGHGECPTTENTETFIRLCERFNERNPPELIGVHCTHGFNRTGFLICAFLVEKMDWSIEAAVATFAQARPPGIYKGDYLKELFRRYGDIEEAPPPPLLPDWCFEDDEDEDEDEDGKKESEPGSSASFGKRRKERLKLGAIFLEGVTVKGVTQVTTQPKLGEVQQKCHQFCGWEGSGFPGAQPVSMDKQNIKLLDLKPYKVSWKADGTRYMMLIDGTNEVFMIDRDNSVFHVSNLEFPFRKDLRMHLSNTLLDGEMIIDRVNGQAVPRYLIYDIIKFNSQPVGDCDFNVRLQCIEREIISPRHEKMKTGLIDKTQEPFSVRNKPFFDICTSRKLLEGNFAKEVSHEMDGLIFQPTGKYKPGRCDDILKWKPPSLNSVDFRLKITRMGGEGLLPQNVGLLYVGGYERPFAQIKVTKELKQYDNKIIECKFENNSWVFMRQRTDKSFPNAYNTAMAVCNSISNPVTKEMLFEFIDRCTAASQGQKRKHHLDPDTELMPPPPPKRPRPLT
Experimental: Reaction mixtures containing 5 µM [α-^32P]GTP, 5 µM of 5′-triphosphate RNA, 0.1 µM HCE, 50 mM Tris-HCl, pH 7.5, 5 mM MgCl2, 500 µM DTT, 0.5 ng/µl pyrophosphatase (Roche), and 1 U of RNAse Out (Invitrogen) were incubated for 15 min at 37°C. Reactions were stopped by the addition of 20 µl of phenol-chloroform. 10 µl of loading dye (97% formamide) was added to the aqueous phase and submitted to electrophoresis on a denaturing 10% polyacrylamide gel. Formation of the ^32P-radiolabeled GpppRNA was quantified with a PhosphorImager.
In order to investigate if MZP could inhibit the RNA capping reaction, we initially addressed its impact on the complete RNA capping reaction (RTase+GTase). A cold 5′-triphosphate RNA was incubated in the presence of HCE, [α-^32P]GTP, magnesium and increasing concentrations of MZP. […] To ensure that the inhibition by MZP was specific, the reaction was performed in the presence of increasing concentrations of GMP which is chemically related to MZP.

HCE RTase activity = biological target: T2, HCE RTase activity (Homo sapiens, UniProt O60942); experiment: RNA triphosphatase (RTase) assay; type: biochemical; details: MZP up to 10 mM, full-length HCE
T2 construct: full-length bifunctional HCE protein (amino acid 1–597); 6-His (N); made in house; host or cells: Escherichia coli BL21(DE3), pET28a
T2 sequence (O60942 whole entry): as above
Experimental: Reaction mixtures containing 50 mM Tris-HCl, pH 7.5, 5 mM MgCl2, 500 µM DTT, 3 µM of γ-^32P-radiolabeled 5′-triphosphate RNA substrate (32 nt), 0.1 µM HCE, and various concentration of MZP (as indicated) were incubated for 10 min at 37°C. The reactions were stopped by the addition of 2 µl of 5 M formic acid. Aliquots of each sample were analyzed on polyethyleneimine-cellulose thin-layer chromatography (TLC) plate, and developed with 0.5 M LiCl and 1 M formic acid. The release of ^32Pi was quantified by scanning the TLC plates with a PhosphorImager.
We next investigated the susceptibility of the RTase domain of HCE to MZP inhibition. To specifically monitor the effect of MZP on the RTase activity, a γ-^32P-radiolabeled 5′-triphosphate RNA was incubated with HCE and magnesium. RTase activity was monitored through the analysis of the ^32Pi product released from the radiolabeled RNA by TLC and autoradiography.

HCE GTase activity [2] = biological target: T3, HCE GTase activity (Homo sapiens, UniProt O60942); experiment: Complete two-step RNA guanylyltransferase (GTase) reaction on 5′-diphosphate RNA; type: biochemical
T3 construct: full-length bifunctional HCE protein (amino acid 1–597); 6-His (N); made in house; host or cells: Escherichia coli BL21(DE3), pET28a
T3 sequence (O60942 whole entry): as above

HCE GTase activity [3] = experiment: as above; type: biochemical, human; details: complete GTase reaction; HCE vs D1R, A103R, Ceg1
[4] = system: HCE-G229–597 (GTase domain of HCE); experiment: Complete GTase reaction with isolated GTase domain; type: biochemical, human
D1R [5] = biological target: T4, D1R (Vaccinia virus, UniProt P04298); experiment: Complete GTase reaction, vaccinia virus GTase; type: biochemical
A103R [6] = biological target: T5, A103R (Paramecium bursaria Chlorella virus 1, UniProt Q84424); type: biochemical, Chlorella virus (PBCV-1)
T5 sequence (Q84424 whole entry, stated change not applied): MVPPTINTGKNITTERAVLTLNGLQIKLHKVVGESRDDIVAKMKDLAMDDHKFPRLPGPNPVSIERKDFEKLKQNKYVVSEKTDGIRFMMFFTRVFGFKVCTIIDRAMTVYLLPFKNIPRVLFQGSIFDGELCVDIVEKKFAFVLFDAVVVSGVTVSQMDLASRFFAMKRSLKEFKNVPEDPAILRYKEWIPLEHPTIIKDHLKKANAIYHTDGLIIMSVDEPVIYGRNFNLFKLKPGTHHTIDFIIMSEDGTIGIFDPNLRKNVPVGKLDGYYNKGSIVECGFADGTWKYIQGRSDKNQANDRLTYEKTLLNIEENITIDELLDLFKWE

Ceg1 [7] = biological target: T6, Ceg1 (Saccharomyces cerevisiae, UniProt Q01159); experiment: Complete GTase reaction, yeast GTase; type: biochemical; details: 0,5 µM Ceg1
T6 sequence (Q01159 1-459): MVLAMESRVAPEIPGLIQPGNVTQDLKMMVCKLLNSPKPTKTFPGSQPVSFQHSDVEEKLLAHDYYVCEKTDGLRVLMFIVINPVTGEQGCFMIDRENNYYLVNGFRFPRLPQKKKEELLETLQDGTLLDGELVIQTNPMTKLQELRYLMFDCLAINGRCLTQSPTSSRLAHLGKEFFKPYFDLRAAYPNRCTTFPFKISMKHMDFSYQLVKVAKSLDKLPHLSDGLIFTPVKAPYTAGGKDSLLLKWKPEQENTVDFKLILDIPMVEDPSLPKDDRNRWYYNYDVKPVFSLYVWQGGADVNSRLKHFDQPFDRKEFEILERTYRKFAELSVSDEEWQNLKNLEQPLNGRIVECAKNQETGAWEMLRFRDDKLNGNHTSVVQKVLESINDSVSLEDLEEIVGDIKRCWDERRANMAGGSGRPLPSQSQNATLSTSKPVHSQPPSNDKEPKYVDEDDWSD

HCE [8] = biological target: T7, HCE (Homo sapiens, UniProt O60942); experiment: Enzyme-GMP (EpG) complex formation, first GTase step; type: biochemical
T7 construct: full-length bifunctional HCE protein (amino acid 1–597); 6-His (N); made in house; host or cells: Escherichia coli BL21(DE3), pET28a
T7 sequence (O60942 whole entry): as the sequence (O60942 whole entry) above
Experimental: The enzyme-GMP complex formation assays were carried out for 3 min at 37°C in a buffer containing 1 µM [α-^32P]GTP, 4 µM HCE, 50 mM Tris-HCl, pH 7.5, 5 mM MgCl2, 500 µM DTT, 0.5 ng/µl pyrophosphatase (Roche), and various concentration of MZP (as indicated). The reactions were stopped by the addition of 5 µl of loading dye (50 mM EDTA, 2% β-mercaptoethanol, 1% SDS) and analyzed on a 12% polyacrylamide gel containing 0.1% SDS. The formation of the radiolabeled HCE-[α-^32P]GMP covalent complex was quantified with a PhosphorImager. Similar experiments were conducted using only the GTase domain of HCE (HCE-G229–597). Alternatively, equimolar concentrations of MgCl2 to MZP were added to the reaction in addition to the base 5 mM MgCl2 from the buffer (MZP✯Mg^2+).
We next set out to identify which step (if any) of the GTase reaction is more susceptible to MZP inhibition. In order to investigate the inhibitory potency of MZP on HCE-GMP complex formation (first step), HCE was incubated with [α-^32P]GTP, magnesium and increasing concentrations MZP. […] The formation of the EpG covalent complex in single turnover condition was analyzed by SDS-PAGE and quantified by phosphorimaging. […] Nevertheless, MZP inhibition of the EpG complex formation is weak and could not be solely responsible for the global inhibitory potency of MZP.

D1R [9] = biological target: T4, D1R; experiment: Enzyme-GMP (EpG) complex formation, vaccinia virus GTase; type: biochemical
A103R [10] = biological target: T5, A103R; type: biochemical, Chlorella virus (PBCV-1); remark: listed apart in the source
Ceg1 [11] = biological target: T6, Ceg1; experiment: Enzyme-GMP (EpG) complex formation, yeast GTase; type: biochemical; details: GTase first step, compared with other GTases
HCE [12] = biological target: T7, HCE; experiment: GMP transfer on a 5′-diphosphate RNA, second GTase step; type: biochemical; details: single turnover
Experimental: Formation of the enzyme-GMP complex was initially performed for 15 min at 37°C in a buffer containing 1.5 µM [α-^32P]GTP, 1 µM HCE, 70 mM Tris-HCl, pH 7.5, 7.5 mM MgCl2, 70 µM DTT, 0.7 ng/µl pyrophosphatase (Roche), and 1 U of RNAse Out (Invitrogen). The transfer reaction was then initiated by adding a 5′-diphosphate RNA (32 nt) to a final concentration of 0.5 µM with various concentration of MZP (as indicated). After 30 sec at 37°C, the transfer reaction was stopped by the addition of 20 µl of phenol-chloroform. 10 µl of loading dye (97% formamide) was added to the aqueous phase and submitted to electrophoresis on a denaturing 10% polyacrylamide gel. The formation of the ^32P-radiolabeled GpppRNA was quantified with a PhosphorImager.
We next investigated if the second step of the GTase reaction could be impaired by MZP. EpG complex formation was allowed to initially form upon incubation of HCE with excess [α-^32P]GTP, magnesium and pyrophosphatase. Next, various concentrations of MZP and a cold 5′-diphosphate RNA were added to initiate the transfer of the [α-^32P]GMP moiety onto the RNA in single turnover condition.

HCE [13] = biological target: T7, HCE; experiment: MZP transfer onto an acceptor RNA (cap donor substrate test); type: biochemical; details: 2 mM MZP, 2 h 37°C
Experimental: Reaction mixtures containing 50 mM Tris-HCl, pH 7.5, 5 mM MgCl2, 500 µM DTT, 0.7 ng/µl pyrophosphatase (Roche), and 1 U of RNAse Out (Invitrogen), 1 µM of 5′-diphosphate RNA substrate (32 nt) harboring a α-^32P-radiolabeled 5′-phosphate, 0.2 µM HCE were incubated in absence or in presence of 2 mM GTP or MZP for 2 h at 37°C. The reaction pH was adjusted to 5.2 with 50 mM NaOAc followed by the addition of 5 µg of Nuclease P1 and incubation at 37°C for 60 min. The digestion were further adjusted with 50 mM Tris-HCl to pH 8.0, and digested with 1 U of alkalie phosphatase (Roche) for 30 min at 37°C. The reaction products were analyzed by thin-layer chromatography (TLC) on a polyethyleneimine-cellulose plate developed with 0.4 M ammonium sulfate.
Supplementary file pone.0054621.s002.tif: Figure S2 MZP as a potential cap donor substrate for HCE. A 5′-diphosphate acceptor RNA initiating with a [α-^32P] guanosine was incubated in absence (lane 1) or in presence of MZP (lane 2) or GTP (lane 3) and HCE. The capping reaction was sequentially submitted to nuclease P1 then alkaline phosphatase prior to analysis by TLC on a polyethyleneimine-cellulose plate. An autoradiogram of the plate is shown. The locations of the origin and GpppG product are indicated by arrows (right). (TIF) Click here for additional data file.

[14] = design: method as in PMID 19336917, PMID 15773958, PMID 11896891, PMID 12036371; details: cited from earlier work
HEK 293T cells = experiment: Inhibition of mRNA cap formation in cells (firefly luciferase reporter); details: 40 µM or 120 µM mizoribine, all cell lines, versus untreated cells

SMILES: Nc1nc2c(ncn2[C@@H]2O[C@H](COP(=O)(O)O)[C@@H](O)[C@H]2O)c(=O)[nH]1 [GMP]
- reduction of RNA capping ([1]; GMP concentrations as high as 10 mM): ≤ 25%

SMILES: NC(=O)c1ncn([C@@H]2O[C@H](COP(=O)(O)O)[C@@H](O)[C@H]2O)c1O [MZP, Mizoribine monophosphate]
- IC50 ([1]; 0.1 µM HCE, 5 µM GTP, 5 µM 5′-triphosphate RNA, 5 mM MgCl2, 15 min 37°C): 150 µM
- effect on RTase activity (HCE RTase activity): does not affect
- mechanism of inhibition, complete GTase reaction (HCE GTase activity [2]; Lineweaver-Burk, Km for GTP independent of MZP concentration): non-competitive
- IC50 (HCE GTase activity [2]; steady-state, 5′-diphosphate RNA, full-length HCE): 80 µM
- difference in susceptibility, HCE versus other GTases (HCE GTase activity [3]): 5-to 25 fold
- decrease in potency versus full-length HCE [4]: 10 fold
- IC50 (D1R [5]): 500 µM
- IC50 (A103R [6]): 750 µM
- IC50 (Ceg1 [7]): > 2000 µM
- mechanism of inhibition, EpG formation (HCE [8]; Lineweaver-Burk, maximal velocity unaffected by MZP): competitive
- IC50 (HCE [8]; single turnover, 4 µM HCE, 1 µM GTP, 3 min 37°C): 3000 µM
- IC50 (D1R [9]): 3000 µM
- IC50 (A103R [10]): 2000 µM
- inhibition of EpG formation (Ceg1 [11]): slightly less affected
- impact on GMP transfer to acceptor RNA (second GTase step) (HCE [12]): only has a minor impact
- use as substrate and transfer onto acceptor RNA (HCE [13]): not able to use the MZP as a substrate

SMILES: NC(=O)c1ncn([C@@H]2O[C@H](CO)[C@@H](O)[C@H]2O)c1O [mizoribine]
- binding to serum proteins [14]: 2.3%
- effect on reporter protein expression (HEK 293T cells): global reduction in protein expression
